# Reference: ChEMBL document CHEMBL3885881, “DrugMatrix”
# Species on record: Rattus norvegicus
# Test: DrugMatrix - Regimen: Daily Repeat
# Format: toxicity, organism-based, Sprague-Dawley
# Set-up: regimen Daily Repeat, gender Male, age 6-8 weeks
# Settings: in vivo, sc, route subcutaneous, […]; for ABSOLUTE BASOPHIL / ABSOLUTE EOSINOPHIL / ABSOLUTE LYMPHOCYTE / ABSOLUTE MONOCYTE / ABSOLUTE SEGMENTED NEUTROPHIL / BASOPHIL / EOSINOPHIL / ERYTHROCYTE COUNT / HEMATOCRIT / HEMOGLOBIN / LEUKOCYTE COUNT / LYMPHOCYTE / MEAN CORPUSCULAR HEMOGLOBIN / MEAN CORPUSCULAR VOLUME / MONOCYTE / NEUTROPHIL / NUCLEATED RED BLOOD CELLS / PLATELET COUNT: tissue Blood; for ALANINE AMINOTRANSFERASE / ALBUMIN / ALKALINE PHOSPHATASE / ASPARTATE AMINOTRANSFERASE / BLOOD UREA NITROGEN / CARBON DIOXIDE / CHLORIDE / CHOLESTEROL / CREATINE PHOSPHOKINASE / CREATININE / GLUCOSE / LACTATE DEHYDROGENASE / LIPASE / PHOSPHORUS / POTASSIUM / SODIUM / TOTAL BILIRUBIN / TOTAL PROTEIN / URIC ACID: tissue Plasma
# [1] = 3 mg/kg, 72 h, dose level Low, time 3 day
# [2] = 3 mg/kg, 120 h, dose level Low, time 5 day
# [3] = 30 mg/kg, 72 h, dose level M2, time 3 day
# [4] = 30 mg/kg, 120 h, dose level M2, time 5 day
smiles,measurement,setting,value
CC(C)(C)CC(C)(C)c1ccc(OCCOCC[N+](C)(C)Cc2ccccc2)cc1.[Cl-] [BENZETHONIUM CHLORIDE],ABSOLUTE BASOPHIL,[1],0 CELLS/uL
same,ABSOLUTE EOSINOPHIL,[1],41 CELLS/uL
same,ABSOLUTE LYMPHOCYTE,[1],15440.33 CELLS/uL
same,ABSOLUTE MONOCYTE,[1],415 CELLS/uL
same,ABSOLUTE SEGMENTED NEUTROPHIL,[1],1437 CELLS/uL
same,BASOPHIL,[1],0%
same,EOSINOPHIL,[1],0.33%
same,ERYTHROCYTE COUNT,[1],5.3 x10E6/uL
same,HEMATOCRIT,[1],33.43%
same,HEMOGLOBIN,[1],12.63 G/DL
same,LEUKOCYTE COUNT,[1],17.33 x10E3/uL
same,LYMPHOCYTE,[1],89.33%
same,MEAN CORPUSCULAR HEMOGLOBIN,[1],23.87 pg
same,MEAN CORPUSCULAR VOLUME,[1],63.13 fL
same,MONOCYTE,[1],2.33%
same,NEUTROPHIL,[1],8%
same,NUCLEATED RED BLOOD CELLS,[1],0 /100WBC
same,PLATELET COUNT,[1],1329.67 x10E3/uL
same,ALANINE AMINOTRANSFERASE,[1],45 u/L
same,ALBUMIN,[1],3.7 G/DL
same,ALKALINE PHOSPHATASE,[1],323.67 u/L
same,ASPARTATE AMINOTRANSFERASE,[1],74 u/L
same,BLOOD UREA NITROGEN,[1],15.67 mg/dL
same,CARBON DIOXIDE,[1],28 mmol/L
same,CHLORIDE,[1],101 MEQ/L
same,CHOLESTEROL,[1],83.33 mg/dL
same,CREATINE PHOSPHOKINASE,[1],130.67 u/L
same,CREATININE,[1],0.18 mg/dL
same,GLUCOSE,[1],149.33 mg/dL
same,LACTATE DEHYDROGENASE,[1],78.67 u/L
same,LIPASE,[1],8.67 u/L
same,PHOSPHORUS,[1],11.23 mg/dL
same,POTASSIUM,[1],6.78 MEQ/L
same,SODIUM,[1],142.67 MEQ/L
same,TOTAL BILIRUBIN,[1],0.23 mg/dL
same,TOTAL PROTEIN,[1],5.93 G/DL
same,URIC ACID,[1],1.53 mg/dL
same,ABSOLUTE BASOPHIL,[2],0 CELLS/uL
same,ABSOLUTE EOSINOPHIL,[2],149.33 CELLS/uL
same,ABSOLUTE LYMPHOCYTE,[2],16956.67 CELLS/uL
same,ABSOLUTE MONOCYTE,[2],380.67 CELLS/uL
same,ABSOLUTE SEGMENTED NEUTROPHIL,[2],2446.67 CELLS/uL
same,BASOPHIL,[2],0%
same,EOSINOPHIL,[2],0.67%
same,ERYTHROCYTE COUNT,[2],5.5 x10E6/uL
same,HEMATOCRIT,[2],34.13%
same,HEMOGLOBIN,[2],12.67 G/DL
same,LEUKOCYTE COUNT,[2],19.93 x10E3/uL
same,LYMPHOCYTE,[2],85.33%
same,MEAN CORPUSCULAR HEMOGLOBIN,[2],23 pg
same,MEAN CORPUSCULAR VOLUME,[2],62.03 fL
same,MONOCYTE,[2],2%
same,NEUTROPHIL,[2],12%
same,NUCLEATED RED BLOOD CELLS,[2],0 /100WBC
same,PLATELET COUNT,[2],1520.67 x10E3/uL
same,ALANINE AMINOTRANSFERASE,[2],63 u/L
same,ALBUMIN,[2],3.47 G/DL
same,ALKALINE PHOSPHATASE,[2],275 u/L
same,ASPARTATE AMINOTRANSFERASE,[2],71.67 u/L
same,BLOOD UREA NITROGEN,[2],14.67 mg/dL
same,CARBON DIOXIDE,[2],27.33 mmol/L
same,CHLORIDE,[2],103 MEQ/L
same,CHOLESTEROL,[2],70.67 mg/dL
same,CREATINE PHOSPHOKINASE,[2],560.33 u/L
same,CREATININE,[2],0.23 mg/dL
same,GLUCOSE,[2],152.67 mg/dL
same,LACTATE DEHYDROGENASE,[2],156.67 u/L
same,LIPASE,[2],10 u/L
same,PHOSPHORUS,[2],11.23 mg/dL
same,POTASSIUM,[2],7.21 MEQ/L
same,SODIUM,[2],144.55 MEQ/L
same,TOTAL BILIRUBIN,[2],0.17 mg/dL
same,TOTAL PROTEIN,[2],5.73 G/DL
same,URIC ACID,[2],1.53 mg/dL
same,ABSOLUTE BASOPHIL,[3],0 CELLS/uL
same,ABSOLUTE EOSINOPHIL,[3],0 CELLS/uL
same,ABSOLUTE LYMPHOCYTE,[3],10787.33 CELLS/uL
same,ABSOLUTE MONOCYTE,[3],579.67 CELLS/uL
same,ABSOLUTE SEGMENTED NEUTROPHIL,[3],1766.33 CELLS/uL
same,BASOPHIL,[3],0%
same,EOSINOPHIL,[3],0%
same,ERYTHROCYTE COUNT,[3],5.13 x10E6/uL
same,HEMATOCRIT,[3],31.77%
same,HEMOGLOBIN,[3],11.87 G/DL
same,LEUKOCYTE COUNT,[3],13.13 x10E3/uL
same,LYMPHOCYTE,[3],83%
same,MEAN CORPUSCULAR HEMOGLOBIN,[3],23.13 pg
same,MEAN CORPUSCULAR VOLUME,[3],61.93 fL
same,MONOCYTE,[3],4.33%
same,NEUTROPHIL,[3],12.67%
same,NUCLEATED RED BLOOD CELLS,[3],0 /100WBC
same,PLATELET COUNT,[3],981 x10E3/uL
same,ALANINE AMINOTRANSFERASE,[3],24.33 u/L
same,ALBUMIN,[3],2.63 G/DL
same,ALKALINE PHOSPHATASE,[3],269 u/L
same,ASPARTATE AMINOTRANSFERASE,[3],71.67 u/L
same,BLOOD UREA NITROGEN,[3],15.33 mg/dL
same,CARBON DIOXIDE,[3],21.67 mmol/L
same,CHLORIDE,[3],101 MEQ/L
same,CHOLESTEROL,[3],45 mg/dL
same,CREATINE PHOSPHOKINASE,[3],122.67 u/L
same,CREATININE,[3],0.15 mg/dL
same,GLUCOSE,[3],140.67 mg/dL
same,LACTATE DEHYDROGENASE,[3],116.67 u/L
same,LIPASE,[3],7 u/L
same,PHOSPHORUS,[3],11.27 mg/dL
same,POTASSIUM,[3],5.61 MEQ/L
same,SODIUM,[3],142.5 MEQ/L
same,TOTAL BILIRUBIN,[3],0.1 mg/dL
same,TOTAL PROTEIN,[3],5.93 G/DL
same,URIC ACID,[3],2.4 mg/dL
same,ABSOLUTE BASOPHIL,[4],0 CELLS/uL
same,ABSOLUTE EOSINOPHIL,[4],0 CELLS/uL
same,ABSOLUTE LYMPHOCYTE,[4],12245 CELLS/uL
same,ABSOLUTE MONOCYTE,[4],1299.67 CELLS/uL
same,ABSOLUTE SEGMENTED NEUTROPHIL,[4],8588.67 CELLS/uL
same,BASOPHIL,[4],0%
same,EOSINOPHIL,[4],0%
same,ERYTHROCYTE COUNT,[4],4.82 x10E6/uL
same,HEMATOCRIT,[4],29.43%
same,HEMOGLOBIN,[4],11.43 G/DL
same,LEUKOCYTE COUNT,[4],22.13 x10E3/uL
same,LYMPHOCYTE,[4],55%
same,MEAN CORPUSCULAR HEMOGLOBIN,[4],23.73 pg
same,MEAN CORPUSCULAR VOLUME,[4],61.07 fL
same,MONOCYTE,[4],6%
same,NEUTROPHIL,[4],39%
same,NUCLEATED RED BLOOD CELLS,[4],0 /100WBC
same,PLATELET COUNT,[4],1372 x10E3/uL
same,ALANINE AMINOTRANSFERASE,[4],31.67 u/L
same,ALBUMIN,[4],2.27 G/DL
same,ALKALINE PHOSPHATASE,[4],363.33 u/L
same,ASPARTATE AMINOTRANSFERASE,[4],89.33 u/L
same,BLOOD UREA NITROGEN,[4],11.67 mg/dL
same,CARBON DIOXIDE,[4],29.33 mmol/L
same,CHLORIDE,[4],101.67 MEQ/L
same,CHOLESTEROL,[4],41.33 mg/dL
same,CREATINE PHOSPHOKINASE,[4],166.67 u/L
same,CREATININE,[4],0.11 mg/dL
same,GLUCOSE,[4],117.33 mg/dL
same,LACTATE DEHYDROGENASE,[4],105.33 u/L
same,LIPASE,[4],7 u/L
same,PHOSPHORUS,[4],10.93 mg/dL
same,POTASSIUM,[4],6.02 MEQ/L
same,SODIUM,[4],143.77 MEQ/L
same,TOTAL BILIRUBIN,[4],0.1 mg/dL
same,TOTAL PROTEIN,[4],5.3 G/DL
same,URIC ACID,[4],1.83 mg/dL
